Measured values taken from patent publication EP4260865B1, “COMPOSITION COMPRISING PLANT EXTRACTS FOR TREATING HYPERCHOLESTEROLEMIA” (Anvest Group S.r.l., priority 2022, dated 2023).

Tests used:
HMG CoA-reductase enzyme = biological target: T1, HMG CoA-reductase enzyme (Homo sapiens, UniProt P04035); test: HMG-CoA reductase activity in treated human liver cells (HUCPI), NADPH oxidation; assay type: cell-based; conditions: administered once in the 24-hour period, Figure 4
T1 construct: First-line human liver cells (HUCPI) were cultured and treated with some compositions; endogenous in cells; host or cells: HUCPI first-line human liver cells
T1 sequence (P04035 1-888): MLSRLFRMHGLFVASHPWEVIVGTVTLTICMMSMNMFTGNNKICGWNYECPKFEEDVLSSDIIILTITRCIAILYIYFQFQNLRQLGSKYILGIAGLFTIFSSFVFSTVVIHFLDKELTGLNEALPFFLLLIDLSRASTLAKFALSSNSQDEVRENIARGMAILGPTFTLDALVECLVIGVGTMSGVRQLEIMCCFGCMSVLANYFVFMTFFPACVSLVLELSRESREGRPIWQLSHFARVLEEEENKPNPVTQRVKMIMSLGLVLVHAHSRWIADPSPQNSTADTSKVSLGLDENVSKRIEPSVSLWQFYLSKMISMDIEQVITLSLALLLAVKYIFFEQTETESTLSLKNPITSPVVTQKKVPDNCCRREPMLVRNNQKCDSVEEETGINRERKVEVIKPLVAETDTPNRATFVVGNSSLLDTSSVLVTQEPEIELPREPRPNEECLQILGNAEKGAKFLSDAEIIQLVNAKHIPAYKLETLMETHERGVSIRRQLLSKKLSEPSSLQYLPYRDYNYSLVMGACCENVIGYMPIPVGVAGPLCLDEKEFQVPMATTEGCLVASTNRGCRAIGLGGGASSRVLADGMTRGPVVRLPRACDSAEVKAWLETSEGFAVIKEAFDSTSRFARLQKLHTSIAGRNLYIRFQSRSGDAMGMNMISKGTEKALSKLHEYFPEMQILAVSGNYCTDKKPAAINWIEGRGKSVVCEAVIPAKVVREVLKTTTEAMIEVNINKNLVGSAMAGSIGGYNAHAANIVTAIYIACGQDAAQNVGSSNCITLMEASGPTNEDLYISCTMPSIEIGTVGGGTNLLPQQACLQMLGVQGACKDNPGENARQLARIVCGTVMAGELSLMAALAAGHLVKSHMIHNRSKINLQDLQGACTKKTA
Experimental: First-line human liver cells (HUCPI) were cultured and treated with some compositions, and with atorvastatin as a control, to evaluate the inhibition capacity of the HMG CoA-reductase enzyme. The enzymatic activity of HMG-CoA reductase was evaluated by measuring the dependent oxidation of NAPDH. For each sample, the measurements were carried out at least in triplicate, and the results were reported as the average of the single values.
The HUCPI cells were treated with the composition of Example 1 and with solutions of single extracts of Policosanols, and a mixture containing Policosanols, Oleuropein and Ipomea batata, in amounts equivalent to the ingredients of the composition of Example 1. After treatment, the cells were lysed and the catalytic fragment of the protein HMGR was cloned, overexpressed, and purified.

PCSK9 = PCSK9 inhibition in HepG2 liver cells (mRNA levels by qRT-PCR); assay type: cell-based, human; conditions: 40 µM berberine or 40 µM equivalent berberine, compared to the control
Experimental: Immortalized HepG2 human hepatocellular carcinoma cells were cultured and then treated with berberine extract, and the composition of Example 1. After treatment, the cells were lysed and the mRNA (messenger RNA) levels for PCSK9 expression were evaluated by qRT-PCR using human-specific PCR primers. For each sample, the measurements were carried out at least in triplicate and the results were reported as the average of the single values.
The efficacy of the invention composition was tested against HepG2 immortalized human hepatocarcinoma cells. […] The inhibition of the messenger RNA (mRNA) encoding the translation of the protein PCSK9 plays a key role in the mechanisms of action aimed at maximizing the hepatic reuptake of LDL cholesterol. […]
As it is possible to see in Figure 1, the mRNA levels related to PCSK9 expression of HepG2 cells are influenced by treatment with 40 µM of berberine, showing a reduction of about 25% after 6 hours and of 40% after 24 hours, compared to the control. […] In fact, a reduction of more than 40% was recorded after 6 hours from the treatment, while at 24 hours inhibition levels equal to about 60% were detected, due to a synergistic effect also of the other components present in the mixture, capable of influencing the PCSK9-LDLR metabolic pathway.

Structure (SMILES): CC(C)c1c(C(=O)Nc2ccccc2)c(-c2ccccc2)c(-c2ccc(F)cc2)n1CC[C@@H](O)C[C@@H](O)CC(=O)O [atorvastatin]
- activity of HMRG (HMG CoA-reductase enzyme): significantly reduced the activity of HMRG

Structure (SMILES): COc1ccc2cc3[n+](cc2c1OC)CCc1cc2c(cc1-3)OCO2 [berberine]
- reduction of mRNA levels related to PCSK9 expression (PCSK9; after 6 hours): about 25%
- reduction of mRNA levels related to PCSK9 expression (PCSK9; after 24 hours): 40%
